Assay results from patent publication US20060223837A1 (priority 2005, published 2006).

Target: T1, human VR1 (Homo sapiens, UniProt Q8NER1)
T1 construct: expressed in transfected cells; host or cells: HEK293
Assay: Human VR1 functional assay (FLIPR intracellular Ca2+)
Type: cell-based
Conditions: for IC50: antagonism of capsaicin-induced Ca2+ increase, read-out: h IC50; for inhibition at 5 µM: read-out: h % I (5 μM); for inhibition at 1 µM: read-out: h % I (1 μM)
Description: The functional activity of the test compounds was determined by measuring changes in intracellular calcium concentration using a Ca^2+-sensitive fluorescent dye and FLIPR™ technology. Increases in Ca^2+ concentration were readily detected upon challenge with capsaicin. HEK293 Cells expressing human VR1 were grown on poly-D-lysine coated 384 well black-walled plates (BD 354663) and 1 day later loaded with Calcium 3 Dye for 35 min at 37 C, 5% CO2 and then for 25 min at room temperature, and subsequently tested for agonist-induced increases in intracellular Ca^2+ levels using FLIPR™ technology. Cells were challenged with test compounds (at varying concentrations, which are indicated in parentheses in the heading of the table below) and intracellular Ca^2+ was measured for 5 min prior to the addition of capsaicin to all wells to achieve a final concentration of eliciting an approximate 80% maximal response ([…]). EC50 or IC50 values were determined from dose-response studies. Curves were generated using the average of quadruplicate wells for each data point.

[1] = inhibition of capsaicin response

T1 sequence (Q8NER1 whole entry): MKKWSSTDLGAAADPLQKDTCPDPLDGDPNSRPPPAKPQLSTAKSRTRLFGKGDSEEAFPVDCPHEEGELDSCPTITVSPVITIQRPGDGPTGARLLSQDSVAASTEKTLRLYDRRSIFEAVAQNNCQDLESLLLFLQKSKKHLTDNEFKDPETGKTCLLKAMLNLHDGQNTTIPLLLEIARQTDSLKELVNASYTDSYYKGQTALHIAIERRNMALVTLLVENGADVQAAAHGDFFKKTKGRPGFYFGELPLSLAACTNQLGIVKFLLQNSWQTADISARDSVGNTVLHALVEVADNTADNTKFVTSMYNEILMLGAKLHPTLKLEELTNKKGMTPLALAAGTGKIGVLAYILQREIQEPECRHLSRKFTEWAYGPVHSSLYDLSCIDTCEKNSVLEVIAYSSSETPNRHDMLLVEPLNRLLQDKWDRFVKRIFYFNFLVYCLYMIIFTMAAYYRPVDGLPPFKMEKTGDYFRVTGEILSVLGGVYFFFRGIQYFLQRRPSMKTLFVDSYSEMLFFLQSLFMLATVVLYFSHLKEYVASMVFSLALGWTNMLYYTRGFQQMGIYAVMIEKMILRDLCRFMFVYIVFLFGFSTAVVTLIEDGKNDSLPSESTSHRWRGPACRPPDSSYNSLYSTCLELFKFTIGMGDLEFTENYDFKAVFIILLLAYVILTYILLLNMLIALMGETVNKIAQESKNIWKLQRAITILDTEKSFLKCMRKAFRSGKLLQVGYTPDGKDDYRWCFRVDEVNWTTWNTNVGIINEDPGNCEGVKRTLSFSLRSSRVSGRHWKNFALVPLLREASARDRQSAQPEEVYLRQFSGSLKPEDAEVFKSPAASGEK

Cc1cc(NC(=O)CCc2ccc(SC(F)(F)F)cc2)cnc1-n1cnc(Cl)c1Cl
h % I (1 μM) [1]: 41%

CC(C)(C)c1ccc(CCC(=O)Nc2ccccc2-c2ccccc2O)cc1 [Cpd 8]
h % I (10 μM) (inhibition of capsaicin response, 10 μM): 45%

Cc1cc(NC(=O)CCc2ccc(C(C)(C)C)cc2)cc(C)c1-c1cccc(O)c1 [Cpd 86, 3-(4-tert-butyl-phenyl)-N-(3′-hydroxy-2,6-dimethyl-biphenyl-4-yl)-propionamide]
IC50: 109 nM | inhibition at 5 µM [1]: 97%

Cc1cc(NC(=O)CCc2ccc(C(C)(C)C)cc2)cc(C)c1-c1ccc(O)cc1 [Cpd 87]
IC50: 857 nM | inhibition at 5 µM [1]: 92%

Cc1cc(NC(=O)CCc2ccc(C(C)(C)C)cc2)cc(C)c1-c1ccc(CO)cc1 [Cpd 88]
IC50: 1710 nM | inhibition at 5 µM [1]: 84%

CC(C)(C)c1ccc(CCC(=O)Nc2cc(F)c(-c3cccc(O)c3)c(F)c2)cc1 [Cpd 89]
h % I (5 μM) [1]: 65%

CC(C)(C)c1ccc(CCC(=O)Nc2cc(F)c(-c3ccc(O)cc3)c(F)c2)cc1 [Cpd 90]
% Response Relative to EC80 of Capsaicin (6 μM) (agonist response, 6 μM): 17%

CC(C)(C)c1ccc(CCC(=O)Nc2cc(F)c(-c3ccc(CO)cc3)c(F)c2)cc1 [Cpd 91]
% Response Relative to EC80 of Capsaicin (6 μM) (agonist response, 6 μM): 22%

CC(C)(C)c1ccc(CCC(=O)Nc2ccc(-c3cccc(CO)c3)c(CO)c2)cc1 [Cpd 95]
Emax at 6 µM (agonist response, 6 μM, read-out: % Response Relative to EC80 of Capsaicin (6 μM)): 127% | EC50 (agonist-induced Ca2+ increase, read-out: h EC50): 248 nM | inhibition at 1 µM [1]: 40%

Cc1cc(NC(=O)CCc2ccc(C(C)(C)C)cc2)cnc1-c1cccc(O)c1 [Cpd 161, 3-(4-tert-butyl-phenyl)-N-[6-(3-hydroxy-phenyl)-5-methyl-pyridin-3-yl]-propionamide]
IC50: 36 nM | inhibition at 5 µM [1]: 94%

Cc1cc(NC(=O)CCc2ccc(C(C)(C)C)cc2)cnc1-c1ccc(O)cc1 [Cpd 162, 3-(4-tert-butyl-phenyl)-N-[6-(4-hydroxy-phenyl)-5-methyl-pyridin-3-yl]-propionamide]
IC50: 126 nM | inhibition at 5 µM [1]: 99%

Cc1cc(NC(=O)CCc2ccc(C(C)(C)C)cc2)cnc1-c1ccc(CO)cc1 [Cpd 163, 3-(4-tert-butyl-phenyl)-N-[6-(4-hydroxymethyl-phenyl)-5-methyl-pyridin-3-yl]-propionamide]
IC50: 97 nM | inhibition at 5 µM [1]: 100%

Cc1cc(NC(=O)CCc2ccc(C(C)(C)C)cc2)cnc1-c1cccnc1 [Cpd 164, 3-(4-tert-butyl-phenyl)-N-(3-methyl-[2,3′]bipyridinyl-5-yl)-propionamide]
IC50: 193 nM | inhibition at 5 µM [1]: 99%

Cc1cc(NC(=O)CCc2ccc(C(C)(C)C)cc2)cnc1-c1ccncc1 [Cpd 165, 3-(4-tert-butyl-phenyl)-N-(3-methyl-[2,4′]bipyridinyl-5-yl)-propionamide]
IC50: 73 nM | inhibition at 5 µM [1]: 99%

Cc1cc(NC(=O)CCc2ccc(C(C)(C)C)cc2)cc(C)c1-c1cccnc1 [Cpd 166]
IC50: 2860 nM | inhibition at 5 µM [1]: 76%

Cc1cc(NC(=O)CCc2ccc(C(C)(C)C)cc2)cc(C)c1-c1ccncc1 [Cpd 167, 3-(4-tert-butyl-phenyl)-N-(3,5-dimethyl-4-pyridin-4-yl-phenyl)-propionamide]
IC50: 183 nM | inhibition at 5 µM [1]: 93%

CC(C)(C)c1ccc(CCC(=O)Nc2cc(F)c(-c3cccnc3)c(F)c2)cc1 [Cpd 168]
IC50: 1560 nM | inhibition at 5 µM [1]: 95%

CC(C)(C)c1ccc(CCC(=O)Nc2ccc(-c3cccnc3)c(CO)c2)cc1 [Cpd 170]
% Response Relative to EC80 of Capsaicin (6 μM) (agonist response, 6 μM): 101% | h % I (1 μM) [1]: 37%

Cc1cc(NC(=O)CCc2ccc(C(C)(C)C)cc2)ccc1-c1ccccn1 [Cpd 172]
IC50: 142 nM

CC(C)(C)c1ccc(CCC(=O)Nc2ccc(-c3ccccn3)c(F)c2)cc1 [Cpd 173]
IC50: 388 nM

Cc1cc(NC(=O)CCc2ccc(C(C)(C)C)cc2)cc(C)c1-c1ccccn1 [Cpd 174]
IC50: 2890 nM

Cc1cc(NC(=O)CCc2ccc(C(C)(C)C)cc2)cnc1-c1ccccn1 [Cpd 177]
IC50: 295 nM

CC(C)(C)c1ccc(CCC(=O)Nc2ccc(-c3cccnc3)c(F)c2)cc1 [Cpd 181]
IC50: 400 nM

CC(C)(C)c1ccc(CCC(=O)Nc2cnc(-c3ccccc3O)cn2)cc1 [Cpd 183]
h % I (1 μM) [1]: 1% | h % I (5 μM) [1]: 9%

CC(C)(C)c1ccc(CCC(=O)Nc2cnc(-c3cccc(O)c3)cn2)cc1 [Cpd 184]
h % I (1 μM) [1]: 1% | h % I (5 μM) [1]: 14%

CC(C)(C)c1ccc(CCC(=O)Nc2cnc(-c3ccc(O)cc3)cn2)cc1 [Cpd 185]
h % I (1 μM) [1]: 1% | h % I (5 μM) [1]: 24%

CC(C)(C)c1ccc(CCC(=O)Nc2cnc(-c3ccc(CO)cc3)cn2)cc1 [Cpd 186]
h % I (1 μM) [1]: 6% | h % I (5 μM) [1]: 39%

CC(C)(C)c1ccc(CCC(=O)Nc2cnc(-c3cccnc3)cn2)cc1 [Cpd 187]
h % I (1 μM) [1]: 11% | h % I (5 μM) [1]: 15%

CC(C)(C)c1ccc(CCC(=O)Nc2cnc(-c3ccncc3)cn2)cc1 [Cpd 188]
h % I (1 μM) [1]: 4% | h % I (5 μM) [1]: 33%

Cc1cn(-c2ccc(NC(=O)CCc3ccc(S(=O)(=O)C(F)(F)F)cc3)cc2C(F)(F)F)cn1 [Cpd 209]
IC50: 48 nM | inhibition at 1 µM [1]: 100%

O=C(CCc1ccc(C(F)(F)F)cc1)Nc1cnc(-c2ccccc2O)c(C(F)(F)F)c1 [Cpd 213]
IC50: 64.5 nM | inhibition at 5 µM [1]: 100%

Cc1cn(-c2ccc(NC(=O)CCc3ccc(SC(F)(F)F)cc3)cc2C(F)(F)F)cn1 [Cpd 219]
IC50: 100 nM | inhibition at 1 µM [1]: 100%

Cc1cn(-c2ccc(NC(=O)CCc3ccc([S+]([O-])C(F)(F)F)cc3)cc2C(F)(F)F)cn1 (stereo not shown) [Cpd 222]
IC50: 137 nM | inhibition at 1 µM [1]: 100%

O=C(/C=C/c1ccc(C(F)(F)F)cn1)Nc1ccc(-n2cnc(Cl)c2Cl)c(C(F)(F)F)c1 [Cpd 235, trans-N-[4-(4,5-Dichloro-imidazol-1-yl)-3-trifluoromethyl-phenyl]-3-(5-trifluoromethyl-pyridin-2-yl)-acrylamide]
IC50: 294 nM | inhibition at 1 µM [1]: 99%

O=C(CCc1ccc(C(F)(F)F)cc1)Nc1ccc(-n2cnc(C(F)(F)F)c2)c(C(F)(F)F)c1 [Cpd 238, 3-(4-Trifluoromethyl-phenyl)-N-[3-trifluoromethyl-4-(4-trifluoromethyl-imidazol-1-yl)-phenyl]-propionamide]
IC50: 340 nM | inhibition at 1 µM [1]: 100%

O=C(CCc1ccc(SC(F)(F)F)cc1)Nc1ccc(-n2cnc(Cl)c2Cl)c(C(F)(F)F)c1 [Cpd 239]
IC50: 358 nM | inhibition at 1 µM [1]: 88%

O=C(CCc1ccc(F)cc1)Nc1ccc(-n2cnc(Cl)c2Cl)c(C(F)(F)F)c1 [Cpd 243]
IC50: 440 nM | inhibition at 1 µM [1]: 92%

O=C(CCc1ccc([S+]([O-])C(F)(F)F)cc1)Nc1ccc(-n2cnc(Cl)c2Cl)c(C(F)(F)F)c1 (stereo not shown) [Cpd 244]
IC50: 452 nM | inhibition at 1 µM [1]: 85%

Cc1cc(NC(=O)CCc2ccc(C(F)(F)F)cc2)cnc1-n1ccnc1 [Cpd 247]
IC50: 549 nM | inhibition at 5 µM [1]: 97%

O=C(CCc1ccc(C(F)(F)F)cn1)Nc1ccc(-n2cnc(Cl)c2Cl)c(C(F)(F)F)c1 [Cpd 248]
IC50: 602 nM | inhibition at 1 µM [1]: 83%

O=C(CCc1ccc(C(F)(F)F)cc1)Nc1cnc(-c2cccnc2)c(C(F)(F)F)c1 [Cpd 249]
IC50: 613 nM | inhibition at 5 µM [1]: 100%

O=C(CCc1ccc(F)c(F)c1)Nc1ccc(-n2ccnc2)c(C(F)(F)F)c1 [Cpd 256]
inhibition at 1 µM [1]: 42%

Cc1cc(NC(=O)CCc2ccc(F)c(F)c2)cnc1-n1cnc(Cl)c1Cl [Cpd 257]
inhibition at 1 µM [1]: 41%

COc1cccc(-c2ncc(NC(=O)CCc3ccc(C(C)(C)C)cc3)cc2C)c1 [Cpd 259]
inhibition at 5 µM [1]: 90%

CC(C)(C)c1ccc(CCC(=O)Nc2ccc(-n3ccnc3)c(C(F)(F)F)c2)cc1 [Cpd 264]
h % I (1 μM) [1]: 24% | h % I (5 μM) [1]: 48%

O=C(CCc1ccc(C(F)(F)F)cc1)Nc1ccc(-c2noc(C(F)(F)F)n2)c(C(F)(F)F)c1 [Cpd 265, 3-(4-Trifluoromethyl-phenyl)-N-[3-trifluoromethyl-4-(5-trifluoromethyl-[1,2,4]oxadiazol-3-yl)-phenyl]-propionamide]
inhibition at 1 µM [1]: 18% | inhibition at 5 µM [1]: 63%

Cc1nc(-c2ccc(NC(=O)CCc3ccc(C(F)(F)F)cc3)cc2C(F)(F)F)no1 [Cpd 266, N-[4-(5-Methyl-[1,2,4]oxadiazol-3-yl)-3-trifluoromethyl-phenyl]-3-(4-trifluoromethyl-phenyl)-propionamide]
inhibition at 1 µM [1]: 47% | inhibition at 5 µM [1]: 64%

Cc1nccn1-c1ccc(NC(=O)CCc2ccc(C(F)(F)F)cc2)cc1C(F)(F)F [Cpd 267]
h % I (1 μM) [1]: 20%

CC(C)c1nccn1-c1ccc(NC(=O)CCc2ccc(C(F)(F)F)cc2)cc1C(F)(F)F [Cpd 268]
h % I (1 μM) [1]: 15%

O=C(CCc1ccc(C(F)(F)F)cc1)Nc1ccc(-n2ccc3ccccc32)c(C(F)(F)F)c1 [Cpd 269]
h % I (1 μM) [1]: 21%

O=C(CCc1ccc(C(F)(F)F)cc1)Nc1ccc(-n2cnc3c2CCCC3)c(C(F)(F)F)c1 [Cpd 270, N-[4-(4,5,6,7-Tetrahydro-benzoimidazol-1-yl)-3-trifluoromethyl-phenyl]-3-(4-trifluoromethyl-phenyl)-propionamide]
inhibition at 1 µM [1]: 47%

COC(=O)c1cn(-c2ccc(NC(=O)CCc3ccc(C(F)(F)F)cc3)cc2C(F)(F)F)cn1 [Cpd 271]
h % I (1 μM) [1]: 26%

Cc1cc(NC(=O)CCc2ccc([S+]([O-])C(F)(F)F)cc2)cnc1-n1cnc(Cl)c1Cl (stereo not shown) [Cpd 273]
h % I (1 μM) [1]: 36%
